Experimental data taken from paper PMC10424178, “Discovery of 5-Phenylpyrazolopyrimidinone Analogs as Potent Antitrypanosomal Agents with In Vivo Efficacy” (Journal of Medicinal Chemistry, 2023).
Entries after “also recorded” stand apart in the source; their conditions may differ.

Experiments:
T. b. brucei [1] = test: Antitrypanosomal assay, T. brucei Squib 427, resazurin viability; type: cell-based; conditions: for times more potent than 1 against T. b. brucei: relative to 1
T. b. brucei [2] = test: Acute (stage-I) mouse model of T. b. brucei infection; type: in vivo
TbrPDEB1 = TbrPDEB1 (Trypanosoma brucei, UniProt Q8WQX9); test: TbrPDEB1 enzyme assay (PDELight HTS cAMP phosphodiesterase kit); type: biochemical, T. brucei
PDE5 = PDE5 (Homo sapiens, UniProt O76074); test: PDE5 inhibition; type: biochemical
human PDE4D2 = human PDE4D2 (Homo sapiens, UniProt Q08499); test: Eurofins Safety-47 panel, PDE4D2; conditions: read-out: inhibition of human PDE4D2
Chain of human PDE4D2 (Q08499 303-809): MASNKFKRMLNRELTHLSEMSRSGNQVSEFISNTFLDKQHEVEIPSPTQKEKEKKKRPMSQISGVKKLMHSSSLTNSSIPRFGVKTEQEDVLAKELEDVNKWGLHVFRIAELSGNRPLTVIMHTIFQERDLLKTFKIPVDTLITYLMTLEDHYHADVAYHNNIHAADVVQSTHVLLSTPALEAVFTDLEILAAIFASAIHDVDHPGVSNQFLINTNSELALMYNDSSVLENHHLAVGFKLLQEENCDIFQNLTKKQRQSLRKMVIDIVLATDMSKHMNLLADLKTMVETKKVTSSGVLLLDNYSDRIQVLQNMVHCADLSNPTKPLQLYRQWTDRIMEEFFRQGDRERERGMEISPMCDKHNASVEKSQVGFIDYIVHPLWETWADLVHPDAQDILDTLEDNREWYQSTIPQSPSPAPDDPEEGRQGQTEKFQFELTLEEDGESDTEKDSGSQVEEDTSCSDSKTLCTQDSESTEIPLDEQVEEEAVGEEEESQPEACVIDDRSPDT

Chain of TbrPDEB1 (Q8WQX9 entry or part of it): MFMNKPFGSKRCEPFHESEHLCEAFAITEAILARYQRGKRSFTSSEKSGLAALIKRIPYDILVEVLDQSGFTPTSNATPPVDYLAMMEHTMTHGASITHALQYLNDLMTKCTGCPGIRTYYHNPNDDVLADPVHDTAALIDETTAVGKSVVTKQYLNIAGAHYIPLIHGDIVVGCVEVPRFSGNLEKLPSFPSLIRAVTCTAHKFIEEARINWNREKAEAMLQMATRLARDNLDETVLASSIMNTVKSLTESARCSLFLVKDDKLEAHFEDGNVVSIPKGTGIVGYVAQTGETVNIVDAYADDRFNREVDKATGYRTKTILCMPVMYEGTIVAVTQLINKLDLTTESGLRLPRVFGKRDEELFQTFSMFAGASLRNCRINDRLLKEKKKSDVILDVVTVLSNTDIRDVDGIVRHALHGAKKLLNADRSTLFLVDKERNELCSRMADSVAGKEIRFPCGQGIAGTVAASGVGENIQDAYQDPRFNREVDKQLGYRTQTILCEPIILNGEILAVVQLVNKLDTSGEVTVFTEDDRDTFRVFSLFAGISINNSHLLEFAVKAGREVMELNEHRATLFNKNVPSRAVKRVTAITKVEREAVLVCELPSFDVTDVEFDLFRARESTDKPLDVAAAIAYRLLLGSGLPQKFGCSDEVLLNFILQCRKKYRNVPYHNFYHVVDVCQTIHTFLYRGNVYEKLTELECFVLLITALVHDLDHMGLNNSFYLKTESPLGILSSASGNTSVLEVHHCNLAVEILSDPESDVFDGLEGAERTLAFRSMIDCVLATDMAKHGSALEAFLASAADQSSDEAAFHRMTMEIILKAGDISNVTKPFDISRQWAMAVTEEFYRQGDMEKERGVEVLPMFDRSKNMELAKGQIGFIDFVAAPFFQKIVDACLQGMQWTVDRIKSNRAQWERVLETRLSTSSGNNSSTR

COc1ccccc1-c1nc2c(C(C)C)n[nH]c2c(=O)[nH]1 [compound 22, 3-Isopropyl-5-(2-methoxyphenyl)-1,6-dihydro-7H-pyrazolo[4,3-d]pyrimidin-7-one]
reduction in potency against T. b. brucei compared with 15 (T. b. brucei [1]; relative to 15): 25 fold

CC(C)c1n[nH]c2c(=O)[nH]c(-c3ccccc3)nc12 [compound 15, 3-Isopropyl-5-phenyl-1,6-dihydro-7H-pyrazolo[4,3-d]pyrimidin-7-one]
times more potent than 1 against T. b. brucei (T. b. brucei [1]): 125 times

CC(C)c1n[nH]c2c(=O)[nH]c(-c3ccncc3)nc12 [compound 16, 3-Isopropyl-5-(pyridin-4-yl)-1,6-dihydro-7H-pyrazolo[4,3-d]pyrimidin-7-one]
times more potent than 1 against T. b. brucei (T. b. brucei [1]): 16 times

CC(C)c1n[nH]c2c(=O)[nH]c(-c3ccc(N4CCN(C)CC4)cc3)nc12 [compound 45, 3-Isopropyl-5-(4-(4-methylpiperazin-1-yl)phenyl)-1,6-dihydro-7H-pyrazolo[4,3-d]pyrimidin-7-one]
IC50 (T. b. brucei [1]; Trypanosoma brucei, T. brucei Squib 427 strain, 72 h drug exposure, highest concentration 64 μM, mean of at least two independent experiments, read-out: T. b. brucei pIC50 (converted)): 20 µM

CC(C)c1n[nH]c2c(=O)[nH]c(-c3ccc(F)cc3)nc12 [compound 30, 5-(4-Fluorophenyl)-3-isopropyl-1,6-dihydro-7H-pyrazolo[4,3-d]pyrimidin-7-one]
time by which all animals relapsed and succumbed (T. b. brucei [2]; 25 mg/kg b.i.d. for 5 days): ≤ 11 dpi | outcome of treatment (parasitemia / cure) (T. b. brucei [2]; 50 mg/kg PO twice daily for 5 consecutive days, follow-up 60 dpi): all infected mice were cured; also recorded: apparent full clearance of parasitemia; also recorded: complete cure | TbrPDEB1 inhibition pKi (TbrPDEB1): inactive | inhibition at 10 µM (PDE5): 52% | inhibition at 10 µM (human PDE4D2): 75%
